Assay results published in US20200129450A1, “COMPOSITION COMPRISING OSMUNDACETONE OR PHARMACEUTICALLY ACCEPTABLE SALT THEREOF FOR PREVENTING OR TREATING BONE DISEASE” (KORPHARM CO., LTD., priority 2016, published 2020).

Tests used:
[1] = test system: osteoclasts differentiated from mouse bone marrow cells; assay: TRAP assay, osteoclast proliferation and differentiation inhibitory activity; type: cell-based
Protocol: Bone marrow cells were collected from the femur and shin bones of 5-8 week old male C57BL/6 mice. Muscles were removed from the bones, and stored in cold phosphate buffered saline (PBS; # CAP08-050, GenDEPOT, Katy, Tex., USA).
Both ends of each bone were cut, and the bone marrow was flushed with a flushing medium (serum-free α-MEM, 2 mM ethylenediaminetetraacetic acid) kept cool, using a 25 G needle.
Bone marrow cells were collected by centrifugation at 3,000 rpm for 3 min using Labogene 1248R (Labogene, Lynge, Denmark), and then resuspended in a wash medium. Thereafter, 8 mL of the collected bone marrow cells were overlaid on 6 mL of a lymphocyte isolation medium (LSM; #50494, MP Biomedicals, Santa Ana, Calif., USA), followed by centrifugation at 1,600 rpm for 20 minutes, thereby isolating mononuclear cells.
The mononuclear cell bands were collected from the media interface, and incubated using complete α-MEM (containing 10% fatal bovine serum (FBS; Capricorn Scientific, Ebsdorfergrund, Germany) and 1% (v/v) antibiotic (including 100 U/mL penicillin G and […] streptomycin)) in the conditions of 37° C. and 5% CO2 while the medium was exchanged every three days.
In order to promote the differentiation of osteoclasts, 1×10^5 cells were incubated in 0.5 mL of the medium per well in a 48-well plate, in the presence of osteoclast differentiation factors, M-CSF (60 ng/mL) and RANKL (150 ng/mL), purchased from PeproTec (Seoul, Korea). As known, macrophages/monocytes derived from one bone marrow differentiated into mature multinucleated osteoclasts after 6 days (Gurt et al., 2015).
The tibia and femur of 6-8 week old male C57BL/6 mice were aseptically resected, and bone marrow cells were aseptically collected using a syringe (21 G, Korea Green Cross). The bone marrow cells were floated in 500 μL of α-MEM medium (Gibco BRL Co.) containing sodium bicarbonate (2.0 g/L), streptomycin (100 mg/L), and penicillin ([…]), dispensed in a 48-well plate, and assayed in triplicate. Mononuclear cells as precursor cells of osteoclasts were treated with RANKL and M-CSF as differentiation promoting factors, and thus differentiated into osteoclasts within 5-7 days.
2-1) Sample preparation: The hot-water extract, EA extract, or fraction of Osmunda japonica were prepared by the same methods as in section 1 of <Example 1>. The EA-2 extract was dissolved in a minimum amount of DMSO, and then diluted with water to 70% of the original volume of the hot-water extract assuming that the yield of EA-2 extraction was approximately 70%. 2-2) Sample administration: The sample was continuously administered to a medium at 1:20 (v/v; 25 μL of the sample per 500 μL of the medium) from day 1 of incubation of bone marrow cells, while the medium was exchanged every 2-3 days. 2-3) Measurement of osteoclast differentiation Osteoclasts were defined by TRAP-positive multinucleated cells stained with TRAP. As for TRAP stain solution, 5 mg of naphthol AS-MS phosphate (Sigma N-4875) as a base and 25 mg of Fast Red Violet LB salt as a color developing reagent were dissolved in about 0.5 mL of N,N-dimethylformamide, and then mixed with 0.1N NaHCO3 buffer solution (50 mL) containing 50 mM tartaric acid. The reaction reagent was stored in a refrigerator before use.
After bone marrow cells were incubated in a medium containing differentiation promoting factors for 7 days, the medium was removed, and the cells were washed with PBS, and then immobilized with PBS containing 10% formalin for 2-5 minutes. Thereafter, the cells were immobilized with a 1:1 mixture solution of ethanol and acetone, followed by drying. The immobilized cells were treated with the TRAP stain solution for 15 minutes, and washed with PBS, and then the degree of cell staining was observed by a microscope.
In the microscope field of view, cells having two or more nuclei in the TRAP-positive cells were determined to be osteoclasts, and the number of cells was measured. […]

ALP activity in MC3T3-E1 = assay: Measurement of ALP activity in MC3T3-E1; type: cell-based, mouse; conditions: 1 μM (positive control, printed in the 10 μM column), MC3T3-E1
Protocol: ALP activity was assessed using Quantichrom ALP Assay Kit (Bioassay Systems, Hayward, Calif., USA) according to manufacturer's instructions.
Briefly, 3×10^3 MC3T3-E1 cells were dispensed in a 96-well plate together with […] of complete α-MEM containing ascorbic acid (50 μg/mL) and 10 mM β-glycerophosphate per well. Here, osmundacetone (10 μM and 50 μM) was added or not added, and the medium was exchanged every 3-4 days.
On day 14 of the incubation, the colorimetric change due to ALP activity in the cell fraction was measured using a spectrophotometer plate reader (Molecular Devices, Sunnyvale, Calif., USA) at 405 nm (Kim et al., 2016). The % activation of ALP activity was shown by comparing ALP activity of cells treated with an experimental compound and ALP activity of the non-treated control cells.

## NCCCC(O)(P(=O)(O)O)P(=O)(O)O [Fosamax, alendronate, reference compound]
[1]; 1 μM
  formation of giant osteoclasts, number compared with the positive control group: smaller compared with the positive control group
[1]; Mus musculus, Osteoclast, tested at 1, 4, 7 and 10 μM, TRAP-positive multinucleated cells
  IC50: ≤ 4 µM

## Parathyroid hormone-related peptide [reference compound]
ALP activity in MC3T3-E1
  % Activation of ALP activity: 138 ± 19%
